Literature values as cited in patent US20110294763A1, “TRANSDERMAL DELIVERY OF DICOLFENAC, CARBAMAZEPINE AND BENZYDAMINE” (priority 2009, published 2011).

Solubility in water: insoluble
SMILES: CN(C)CCCOc1nn(Cc2ccccc2)c2ccccc12 [Benzydamine base]
